ChEMBL document CHEMBL1201861, “Genomics of Drug Sensitity in Cancer screening data, Wellcome Trust Sanger Institute”

Key:
Experiment in all cases: cells
Assay type in all cases: functional, cell-based
Settings in all cases: Homo sapiens
BB49-HNC = system: BB49-HNC;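 further: cell viability assay read-out, reported as inhibition of BB49-HNC cell growth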
Description: SANGER: Inhibition of human BB49-HNC cell growth in a cell viability assay.

NCI-H446 = system: NCI-H446;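 further: growth inhibition of NCI-H446 cells determined by a cell viability assay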
Description: SANGER: Inhibition of human NCI-H446 cell growth in a cell viability assay.

NCI-H510A = system: NCI-H510A;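 further: growth inhibition of NCI-H510A cells, read out with a cell viability assay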
Description: SANGER: Inhibition of human NCI-H510A cell growth in a cell viability assay.

EKVX = system: EKVX;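 further: growth inhibition of human EKVX cells, read out with a cell viability assay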
Description: SANGER: Inhibition of human EKVX cell growth in a cell viability assay.

HCC1187 = system: HCC1187;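 further: growth inhibition of HCC1187 cells, read out with a cell viability assay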
Description: SANGER: Inhibition of human HCC1187 cell growth in a cell viability assay.

L-363 = system: L-363
Description: SANGER: Inhibition of human L-363 cell growth in a cell viability assay.

MLMA = system: MLMA;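 further: growth inhibition of MLMA cells (human), determined through a cell viability readout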
Description: SANGER: Inhibition of human MLMA cell growth in a cell viability assay.

NB10 = system: NB10;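 further: growth inhibition of NB10 cells, read out by a cell viability assay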
Description: SANGER: Inhibition of human NB10 cell growth in a cell viability assay.

A388 = system: A388;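 further: growth inhibition of human A388 cells, read out with a cell viability assay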
Description: SANGER: Inhibition of human A388 cell growth in a cell viability assay.

ONS-76 = system: ONS-76;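 further: growth inhibition of human ONS-76 cells, read out with a cell viability assay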
Description: SANGER: Inhibition of human ONS-76 cell growth in a cell viability assay.

CCRF-CEM = system: CCRF-CEM;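 further: inhibition of CCRF-CEM cell growth, measured by a cell viability assay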
Description: SANGER: Inhibition of human CCRF-CEM cell growth in a cell viability assay.

NCI-H1299 = system: NCI-H1299;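 further: growth inhibition of human NCI-H1299 cells, read out by a cell viability assay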
Description: SANGER: Inhibition of human NCI-H1299 cell growth in a cell viability assay.

MFM-223 = system: MFM-223
Description: SANGER: Inhibition of human MFM-223 cell growth in a cell viability assay.

ES4 = system: ES4;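 further: growth inhibition of human ES4 cells, read out by a cell viability assay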
Description: SANGER: Inhibition of human ES4 cell growth in a cell viability assay.

KINGS-1 = system: KINGS-1;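 further: cell viability assay measuring suppression of KINGS-1 cell growth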
Description: SANGER: Inhibition of human KINGS-1 cell growth in a cell viability assay.

L-428 = system: L-428
Description: SANGER: Inhibition of human L-428 cell growth in a cell viability assay.

K562 = system: K562
Description: SANGER: Inhibition of human K-562 cell growth in a cell viability assay.

A101D = system: A101D;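 further: growth inhibition of the cell line, measured with a viability assay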
Description: SANGER: Inhibition of human A101D cell growth in a cell viability assay.

HD-MY-Z = system: HD-MY-Z;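 further: growth inhibition of HD-MY-Z cells, read out with a cell viability assay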
Description: SANGER: Inhibition of human HD-MY-Z cell growth in a cell viability assay.

NOS-1 = system: NOS-1;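 further: growth inhibition of the human NOS-1 cell line, read out with a cell viability assay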
Description: SANGER: Inhibition of human NOS-1 cell growth in a cell viability assay.

MOLT-4 = system: MOLT-4;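 further: growth inhibition of MOLT-4 cells, determined with a cell viability readout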
Description: SANGER: Inhibition of human MOLT-4 cell growth in a cell viability assay.

DEL = system: DEL;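 further: growth inhibition of the human DEL cell line, read out with a cell viability assay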
Description: SANGER: Inhibition of human DEL cell growth in a cell viability assay.

TE-6 = system: TE-6;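 further: growth inhibition of TE-6 cells, read out with a cell viability assay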
Description: SANGER: Inhibition of human TE-6 cell growth in a cell viability assay.

NCI-H82 = system: NCI-H82;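 further: growth inhibition of NCI-H82 cells, measured with a cell viability readout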
Description: SANGER: Inhibition of human NCI-H82 cell growth in a cell viability assay.

RKO = system: RKO;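 further: growth inhibition of human RKO cells, read out with a cell viability assay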
Description: SANGER: Inhibition of human RKO cell growth in a cell viability assay.

MZ2-MEL = system: MZ2-MEL;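 further: growth inhibition of MZ2-MEL cells read out with a cell viability assay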
Description: SANGER: Inhibition of human MZ2-MEL cell growth in a cell viability assay.

ES3 = system: ES3;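 further: growth inhibition of ES3 cells, read out with a cell viability assay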
Description: SANGER: Inhibition of human ES3 cell growth in a cell viability assay.

SK-MEL-1 = system: SK-MEL-1;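 further: growth inhibition of human SK-MEL-1 cells, read out by a cell viability assay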
Description: SANGER: Inhibition of human SK-MEL-1 cell growth in a cell viability assay.

COLO-800 = system: COLO-800;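 further: growth inhibition of COLO-800 cells, read out with a cell viability assay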
Description: SANGER: Inhibition of human COLO-800 cell growth in a cell viability assay.

CGTH-W-1 = system: CGTH-W-1;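 further: growth inhibition of human CGTH-W-1 cells measured by cell viability assay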
Description: SANGER: Inhibition of human CGTH-W-1 cell growth in a cell viability assay.

NCI-H747 = system: NCI-H747;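 further: growth inhibition of human NCI-H747 cells, read out by a cell viability assay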
Description: SANGER: Inhibition of human NCI-H747 cell growth in a cell viability assay.

U-266 = system: U-266
Description: SANGER: Inhibition of human U-266 cell growth in a cell viability assay.

UACC-257 = system: UACC-257
Description: SANGER: Inhibition of human UACC-257 cell growth in a cell viability assay.

SK-NEP-1 = system: SK-NEP-1;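 further: growth inhibition of human SK-NEP-1 cells, read out by a cell viability assay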
Description: SANGER: Inhibition of human SK-NEP-1 cell growth in a cell viability assay.

RCC10RGB = system: RCC10RGB;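 further: growth inhibition of human RCC10RGB cells, read out by a cell viability assay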
Description: SANGER: Inhibition of human RCC10RGB cell growth in a cell viability assay.

HAL-01 = system: HAL-01;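 further: growth inhibition of human HAL-01 cells, read out with a cell viability assay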
Description: SANGER: Inhibition of human HAL-01 cell growth in a cell viability assay.

TE-9 = system: TE-9;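 further: cell growth inhibition, measured with a cell viability readout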
Description: SANGER: Inhibition of human TE-9 cell growth in a cell viability assay.

COLO-320-HSR = system: COLO-320-HSR;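 further: growth inhibition of COLO-320-HSR cells, determined with a cell viability assay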
Description: SANGER: Inhibition of human COLO-320-HSR cell growth in a cell viability assay.

OVCAR-4 = system: OVCAR-4;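 further: growth inhibition of human OVCAR-4 cells, measured with a cell viability assay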
Description: SANGER: Inhibition of human OVCAR-4 cell growth in a cell viability assay.

COLO-824 = system: COLO-824
Description: SANGER: Inhibition of human COLO-824 cell growth in a cell viability assay.

HH = system: HH
Description: SANGER: Inhibition of human HH cell growth in a cell viability assay.

DMS-114 = system: DMS-114
NCI-H1304 = system: NCI-H1304;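 further: growth inhibition of the cancer cell line, measured in a cell viability assay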
Description: SANGER: Inhibition of human NCI-H1304 cell growth in a cell viability assay.

JVM-3 = system: JVM-3;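 further: growth inhibition of human JVM-3 cells, read out with a cell viability assay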
Description: SANGER: Inhibition of human JVM-3 cell growth in a cell viability assay.

TE-5 = system: TE-5;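 further: inhibition of cell growth, read out by a cell viability assay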
Description: SANGER: Inhibition of human TE-5 cell growth in a cell viability assay.

GT3TKB = system: GT3TKB;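 further: growth inhibition of the cell line, read out with a cell viability assay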
Description: SANGER: Inhibition of human GT3TKB cell growth in a cell viability assay.

TE-10 = system: TE-10;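 further: growth inhibition of TE-10 cells, measured by a cell viability assay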
Description: SANGER: Inhibition of human TE-10 cell growth in a cell viability assay.

NCI-H1092 = system: NCI-H1092;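 further: cell growth inhibition measured with a cell viability assay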
Description: SANGER: Inhibition of human NCI-H1092 cell growth in a cell viability assay.

LAMA-84 = system: LAMA-84;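 further: growth inhibition of LAMA-84 cells, read out with a cell viability assay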
Description: SANGER: Inhibition of human LAMA-84 cell growth in a cell viability assay.

DJM-1 = system: DJM-1;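 further: growth inhibition of human DJM-1 cells, read out by a cell viability assay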
Description: SANGER: Inhibition of human DJM-1 cell growth in a cell viability assay.

LB2518-MEL = system: LB2518-MEL;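 further: growth inhibition of human LB2518-MEL cells, measured with a cell viability assay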
Description: SANGER: Inhibition of human LB2518-MEL cell growth in a cell viability assay.

KP-N-YS = system: KP-N-YS;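 further: cell viability assay measuring inhibition of cell line growth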
Description: SANGER: Inhibition of human KP-N-YS cell growth in a cell viability assay.

SW982 = system: SW982;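 further: growth inhibition of SW982 cells, read out with a cell viability assay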
Description: SANGER: Inhibition of human SW982 cell growth in a cell viability assay.

EW-13 = system: EW-13;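 further: growth inhibition of EW-13 cells, read out with a cell viability assay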
Description: SANGER: Inhibition of human EW-13 cell growth in a cell viability assay.

KALS-1 = system: KALS-1;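 further: growth inhibition of KALS-1 cells, determined with a cell viability assay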
Description: SANGER: Inhibition of human KALS-1 cell growth in a cell viability assay.

KARPAS-45 = system: KARPAS-45;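 further: inhibition of cell line growth, read out through a viability assay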
Description: SANGER: Inhibition of human KARPAS-45 cell growth in a cell viability assay.

EW-11 = system: EW-11;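 further: growth inhibition of human EW-11 cells, measured with a cell viability assay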
Description: SANGER: Inhibition of human EW-11 cell growth in a cell viability assay.

DSH1 = system: DSH1
Description: SANGER: Inhibition of human DSH1 cell growth in a cell viability assay.

HEL = system: HEL
Description: SANGER: Inhibition of human HEL cell growth in a cell viability assay.

OCI-AML2 = system: OCI-AML2
Description: SANGER: Inhibition of human OCI-AML2 cell growth in a cell viability assay.

no-10 = system: no-10
Description: SANGER: Inhibition of human no-10 cell growth in a cell viability assay.

SK-N-DZ = system: SK-N-DZ
Description: SANGER: Inhibition of human SK-N-DZ cell growth in a cell viability assay.

LNCaP-Clone-FGC = system: LNCaP-Clone-FGC
Description: SANGER: Inhibition of human LNCaP-Clone-FGC cell growth in a cell viability assay.

HT = system: HT
Description: SANGER: Inhibition of human HT cell growth in a cell viability assay.

TGBC1TKB = system: TGBC1TKB
Description: SANGER: Inhibition of human TGBC1TKB cell growth in a cell viability assay.

SK-UT-1 = system: SK-UT-1
Description: SANGER: Inhibition of human SK-UT-1 cell growth in a cell viability assay.

Compound: CC[C@]1(O)C[C@@H]2CN(CCc3c([nH]c4ccccc34)[C@@](C(=O)OC)(c3cc4c(cc3OC)N(C)[C@H]3[C@@](O)(C(=O)OC)[C@H](OC(C)=O)[C@]5(CC)C=CCN6CC[C@]43[C@@H]65)C2)C1 [VINBLASTINE]
- IC50 (BB49-HNC): 12.6 nM
- IC50 (NCI-H446): 2.12 nM
- IC50 (NCI-H510A): 2.75 nM
- IC50 (EKVX): > 100 nM
- IC50 (HCC1187): 2.75 nM
- IC50 (L-363): 6 nM
- IC50 (MLMA): 4.65 nM
- IC50 (NB10): 7.32 nM
- IC50 (A388): 6.91 nM
- IC50 (ONS-76): 3.74 nM
- IC50 (CCRF-CEM): 10.1 nM
- IC50 (NCI-H1299): 16.4 nM
- IC50 (MFM-223): > 100 nM
- IC50 (ES4): 13.8 nM
- IC50 (KINGS-1): 9.32 nM
- IC50 (L-428): > 100 nM
- IC50 (K562): > 100 nM
- IC50 (A101D): 31.4 nM
- IC50 (HD-MY-Z): 3.33 nM
- IC50 (NOS-1): 40.9 nM
- IC50 (MOLT-4): 3.85 nM
- IC50 (DEL): 2.16 nM
- IC50 (TE-6): 56.5 nM
- IC50 (NCI-H82): > 100 nM
- IC50 (RKO): 8.24 nM
- IC50 (MZ2-MEL): 60.3 nM
- IC50 (ES3): 2.77 nM
- IC50 (SK-MEL-1): 67.3 nM
- IC50 (COLO-800): 3.34 nM
- IC50 (CGTH-W-1): 5.56 nM
- IC50 (NCI-H747): 81.2 nM
- IC50 (U-266): 10.8 nM
- IC50 (UACC-257): 90.5 nM
- IC50 (SK-NEP-1): 1.5 nM
- IC50 (RCC10RGB): > 100 nM
- IC50 (HAL-01): > 100 nM
- IC50 (TE-9): 4.27 nM
- IC50 (COLO-320-HSR): > 100 nM
- IC50 (OVCAR-4): 27.9 nM
- IC50 (COLO-824): > 100 nM
- IC50 (HH): 6.37 nM
- IC50 (DMS-114): 20.9 nM
- IC50 (NCI-H1304): > 100 nM
- IC50 (JVM-3): 1.7 nM
- IC50 (TE-5): 6.14 nM
- IC50 (GT3TKB): 1.92 nM
- IC50 (TE-10): 21.5 nM
- IC50 (NCI-H1092): > 100 nM
- IC50 (LAMA-84): 7.01 nM
- IC50 (DJM-1): > 100 nM
- IC50 (LB2518-MEL): > 100 nM
- IC50 (KP-N-YS): 22.9 nM
- IC50 (SW982): 8.92 nM
- IC50 (EW-13): 36.5 nM
- IC50 (KALS-1): 7.79 nM
- IC50 (KARPAS-45): 1.79 nM
- IC50 (EW-11): 7.15 nM
- IC50 (DSH1): 23.2 nM
- IC50 (HEL): 32.8 nM
- IC50 (OCI-AML2): > 100 nM
- IC50 (no-10): > 100 nM
- IC50 (SK-N-DZ): 37.4 nM
- IC50 (LNCaP-Clone-FGC): 8.28 nM
- IC50 (HT): 15.6 nM
- IC50 (TGBC1TKB): 31.2 nM
- IC50 (SK-UT-1): 11.7 nM
